Experimental findings from patent US20260240851A1, “Treatment of Parkinson's Disease in a Patient Using a Glucocerebrosidase Activator” (BIAL - R&D Investments, S.A., priority 2023, published 2026) are described below.

Series [1] is described as follows: LTI-291-001: safety and tolerability. The format is in vivo, human. As to the method:
This study was a first-in-human Phase 1, randomized, double-blind, placebo-controlled, single-ascending dose study to evaluate the safety and tolerability, PK, and PD of escalating single oral doses of Compound A (3, 10, 30, and 90 mg) in 4 cohorts of healthy subjects. A total of 32 subjects received a single oral dose of Compound A (8 per dose group) and 8 subjects received placebo. The effect of food on the PK of Compound A was evaluated by administering a second single oral dose of 10 mg Compound A to the subjects in Cohort 2 on a separate occasion, after subjects had completed a high-fat breakfast. Blood samples for Compound A PK were collected up to 48 hours after each dose.

A short description of series [2]: LTI-291-003: safety and tolerability. The class given is in vivo, human. From the text: This study was a Phase 1b, randomized, double-blind, placebo-controlled, multiple oral dose study of Compound A in 40 subjects (aged 40 to 80 years) with GBA-PD. Approximately 50% of the enrolled subjects had major (loss of 30%-50% total activity) mutations in GCase and 50% had polymorphism mutation (loss of 10%-20% of total activity) mutations in GCase. The objectives of this study were to investigate the safety, tolerability, and PK of multiple once-daily oral administration of Compound A and to explore the accompanying pharmacodynamic changes in subjects with GBA-PD with major and polymorphism mutations. Subjects received once-daily oral doses of 10 mg (n=10), 30 mg (n=10), or 60 mg (2×30 mg capsules) (n=10) Compound A or placebo (n=10) for 28 consecutive days.

For series [3], the system named is GCase. The experiment in a line: Phase 2 study: GCase activity in whole blood (dried blood spot, FIA-MS/MS). The class given is in vivo, human. The settings on record: vs placebo. As to the method:
In addition, the PD biomarkers and GCase activity in whole blood samples are measured at baseline and week 78 (preferably baseline and weeks 4, 26, 52 and 78). This may include biomarkers of lysosomal activity (e.g., glucosylsphingosine (GluSph) and/or glucosylceramide (GluCer)). Methods of measuring lysosomal activity (e.g., GluSph and/or GluCer) are described above. A method of measuring GCase activity is described below. Magnetic resonance imagining (MRI) scans are performed at baseline and week 78 for a cohort of GBA-PD subjects.
The preferred method of measuring GCase activity in whole blood is described below, and also in Totorelli, 2016, which is incorporated herein by reference:
A 5-plex cocktail assay for GCase, acid a-glucosidase (GAA), galactocerebrosidase (GALC), a-galactosidase A (GLA), and a-L-iduronidase (IDUA) activity is prepared. Vials containing the substrate (S) and internal standards (IS) for GCase and GAA are reconstituted with methanol and transferred to the GALC S+IS vial followed by evaporation. The GLA S+IS vial is reconstituted with 1.8 mL of 96 g/L sodium taurocholate in water and then transferred to the dry GALC S+IS vial, which is then heated to 60° C. to dissolve all solids. […]

Series [4] in a line: clinical. The conditions noted are these: both, human, plasma, 60 mg; for AUC(0-t): Sinemet portion, geometric mean.
Procedure: This was a Phase 1, non-randomized, open-label, 2-cohort, cross-over, DDI study in healthy male and female subjects.
In Cohort 1, a single oral dose 100 mg/25 mg levodopa-carbidopa (Sinemet®) IR was administered alone on Day 1.

Molecules are shown by their SMILES.

One may read the Cmax as the highest concentration seen after dosing. As a reminder, the Tmax is the time from dosing to the highest level. For orientation: AUC(0-t) means the area under the concentration-time curve up to a stated or last time point. High values mean more exposure, low ones less exposure. With `CCCCCO[C@H]1CC[C@H](NC(=O)c2cnn3c(C)cc(C)nc23)CC1` [Compound A, 5,7-dimethyl-N-((1S*,4S)-4-(pentyloxy)cyclohexyl)pyrazolo[1,5-a]pyrimidine-3-carboxamide], in series [1] (all Compound A groups), the “AE fatigue, subjects” value worked out at 7.5%; the “AE headache, subjects” value came out at 12.5%; the “AE somnolence, subjects” value is reported as 10%; the “at least one AE in the GI system organ class, subjects” value was found to be 7.5%. Moreover, the “vital signs, laboratory safety assessments, ECG parameters” value in series [1] (single doses) is “no clinically significant safety observations”. In series [1] (single doses 3-90 mg), the “deaths, SAEs, severe AEs, discontinuations due to AEs” value is “No deaths, other SAEs, severe AEs, or discontinuations due to AEs”. In addition, the “deaths, SAEs, severe AEs, discontinuations due to AEs” value in series [2] (10-60 mg daily for 28 days, GBA-PD) is reported as “No deaths, other SAEs, severe AEs, or discontinuations due to AEs”. The “vital signs, laboratory safety assessments, ECG parameters” value in series [2] (28 days) is “no clinically significant safety observations”. In series [2] (all Compound A groups), the “AE back pain, patients” value stood at 13.3%; the “AE fatigue, patients” value is 16.7%; the “AE headache, subjects” value worked out at 13.3%; the “AE worsening of Parkinson's disease symptoms, subjects” value came out at 13.3%. The “Mean change in GCase activity in whole blood samples” value in series [3] is given as “higher”. In series [4], the Cmax came out at 1940 ng/mL and the Tmax is 2 h. The compound also had an exposure AUC(0-t) in series [4] (AUC0-24, 60 mg Compound A alone) of 22800 ng·h/mL. In addition, in series [4] (AUC0-t, 60 mg Compound A alone), the exposure AUC(0-t) was determined as 22700 ng·h/mL.
